Measurements from a melting point compilation (Tetko et al.; mined from patent text by program, amines drawn as free bases though some values may be those of a salt).

Row | melting point | Structure (SMILES)
1 | > 250 °C | O=C1c2cccc3c(N4CCCCC4)c(Br)cc(c23)C(=O)N1O
2 | 240 °C | CCn1ncc2c(NCC3CCCCC3)c3cc(C(=O)O)ccc3nc21
3 | 318 to 320 °C | O=C(O)c1ccc(CCc2n[nH]c3c2c(=O)n(-c2ccccc2)c2ncccc32)cc1
4 | 248 °C | O=C(O)c1ccc(COCc2csc3nc(C(=O)O)[nH]c(=O)c23)cc1
5 | 153 °C | COc1cc(S(N)(=O)=O)cc(C(=O)Cl)c1OC
6 | 142 to 143 °C | CC1CC(C)CN(CCNc2ccnc3cc(Cl)ccc23)C1 (stereo unspecified)
7 | 248 to 249 °C | Cc1cc(-c2nc3ccc(CCN4CCOCC4)cc3c(=O)[nH]2)cc(C)n1
8 | 145 to 147 °C | CCC(=O)OCC(=O)Nc1nc2ccc(OC)cc2s1
9 | 119 to 121 °C | COc1cc(OC)cc(-c2cc(NC(=O)CC(=O)C(F)(F)F)[nH]n2)c1
10 | 116 to 119 °C | CC(=O)Oc1ccc(Cc2ccc(C(=O)O)nc2)cc1
11 | 144 to 145 °C | O=C(O)CN1CC(NC(=O)Cc2ccccc2)C1=O (stereo unspecified)
12 | 145 to 150 °C | CCOC(=O)c1ccc2cc(N=[N+]=[N-])ccn2c1=O
13 | 212 to 213 °C | O=C(O)C1=Cc2cc(-c3ccc(Cl)cc3)ccc2OC1C(F)(F)F (stereo unspecified)
14 | > 300 °C | O=c1nc(-c2ccccc2F)c2cc(Cl)ccc2[nH]1
15 | 106 to 108 °C | CCN(CC)CCNC(=O)c1cc(Cl)nc2ccc(I)cc12
16 | 122 °C | O=C(CC1CCN(C(=O)OCc2ccccc2)CC1)c1c[nH]c2ccccc12
17 | 274 to 278 °C | O=C(O)c1cn2c3c(c(N4CCN(Cc5ccccc5)CC4)ccc3c1=O)CCC2
18 | 207 to 208 °C | Nc1cc2c(c(C(=O)O)c1)NCCC2
19 | 210 to 212 °C | CCCCc1ncc(/C=C(\Cc2cccs2)C(=O)O)n1Cc1ccc(C(N)=O)cc1

Row | melting point | Structure (SMILES)
20 | 100 to 101 °C | COC(=O)c1nc(-c2ccccc2)ccc1O
21 | 220 to 222 °C | CCOc1c(C=C2CCn3c2nc2cc(NC(=O)C(=O)O)ccc2c3=O)cccc1OC
22 | 175 °C | O=C(Nc1ccc2ccc(-c3ccccc3)nc2n1)c1cccc(Cl)c1
23 | 250 °C | CCCCc1nc2c(C(=O)O)cccc2n1Cc1ccc(C(=O)O)cc1
24 | 241 to 242 °C | Nc1c(C(=O)c2cc(-c3ccccc3)no2)[nH]c2cc(Cl)ccc12
25 | 142 to 143 °C | CCOC(=O)c1c(C)cc(OC)cc1C(=O)O
26 | 90 to 91 °C | O=C(O)CCc1cnoc1-c1ccccc1
27 | 148 to 150 °C | CC1Cc2cc3c(cc2C(c2ccc([N+](=O)[O-])cc2)=NN1C(=O)CCCC(=O)O)OCO3 (stereo unspecified)
28 | 245 to 247 °C | C/C(=C\c1ccc(C(=O)O)cc1)c1ccc2c(c1)C(C)(C)CCS2(=O)=O
29 | 89 to 92 °C | COCCOc1ccc(/C=C(\C)C(=O)NS(=O)(=O)c2cccc(Cl)c2)c(Oc2ncc(C(F)(F)F)cc2Cl)c1
30 | 245 to 247 °C | CC(C)(C)C(NC(=O)c1cccc(Cl)c1)Nc1c(Nc2cnccn2)c(=O)c1=O (stereo unspecified)
31 | 226 °C | NC(=O)CN1C(=O)Cc2cc(Cl)ccc21
32 | 113 to 115 °C | Cc1ccc(Oc2c(F)cc(C(F)(F)F)cc2Cl)cc1[N+](=O)[O-]
33 | 193 to 194 °C | COc1ccc(C(=O)Nc2cccc3cnccc23)cc1OC
34 | 286 to 288 °C | COc1cc(C(=O)O)ccc1Cn1cc(/C=C/C(=O)N2CCCC2)c2ccc(/C=C/C(=O)N3CCCC3)cc21
35 | 260 °C | O=C(O)COc1cc(C(=O)O)nc2ccc(Cl)cc12
36 | > 260 °C | Nc1nc2c(s1)C(=O)c1ccccc1C2=O
37 | 204 to 205 °C | O=C(O)CC1c2ccccc2C(=O)N1c1ccccc1 (stereo unspecified)

Continued, compound first:

Row | Structure (SMILES) | melting point
38 | COc1cc(Nc2c(C#N)cnc3cc(Sc4ccccc4)c(OC)cc23)c(Cl)cc1Cl | 220 to 222 °C
39 | COc1cc(Nc2c(C#N)cnc3cc(C#Cc4cccnc4)sc23)c(Cl)cc1Cl | 249 to 250 °C
40 | NCC1Cc2cc(C(F)(F)F)cc(-c3ccc(C(F)(F)F)cc3)c2O1 (stereo unspecified) | > 250 °C
41 | Cc1cc(C(=O)N2Cc3ccc(C(=O)NCc4cccnc4)n3Cc3ccccc32)ccc1I | 176 to 177 °C
42 | COC(=O)Cc1ccccc1S(=O)(=O)NC(=S)Nc1nc(OC)nc(OC)n1 | 164 to 168 °C
43 | CN1C(=O)C2(COc3cc4c(cc32)OCCO4)c2c(Oc3ccc(C(F)(F)F)cc3)cccc21 (stereo unspecified) | 198 to 201 °C
44 | Cc1nnnn1/C=C\SC(c1ccccc1)(c1ccccc1)c1ccccc1 | 208 to 210 °C
45 | O=C(O)c1ccc(-c2ccc(-c3cc(-c4ccc(-c5ccc(C(=O)O)cc5)cc4)cc(-c4ccc(-c5ccc(C(=O)O)cc5)cc4)c3)cc2)cc1 | 326 °C
46 | CCCC12CCC3C4CCC(=O)C=C4CCC3C1CCC2(C)O (stereo unspecified) | 134 to 136 °C
47 | CCCc1c(OCc2ccc(CC#N)cc2)ccc(C(C)=O)c1O | 75 to 76 °C
48 | O=S(=O)(Nc1cccc(CCOCc2ccc(-c3ccc(C(F)(F)F)cc3)cc2)c1)C(F)(F)F | 98 to 100 °C
49 | NC(=O)CC[C@H](NC(=O)c1ccc(OCc2ccccc2)cc1OCc1ccccc1)C(=O)N1CCN(c2ccccc2)CC1 | 157 to 158 °C
50 | O=c1c(CO)csc2ccc3ccccc3c12 | 158 to 159 °C
51 | COc1ccc2c(Cc3ccc(O)cc3)c(-c3ccccc3)c(=O)oc2c1 | 235 to 236 °C
52 | CCOCc1nc2c(N)nc3cc(OCc4ccccc4)ccc3c2n1CC1COC(C)(C)O1 (stereo unspecified) | 186 to 187 °C
53 | OCCc1cn2ccccc2n1 | 120 to 127 °C
54 | COc1cc(C(C)C)c2c(c1OC)S(=O)(=O)NC2=O | 210 to 212 °C
55 | CC(C)CNC(=O)C=CCBr | 94 to 95 °C
56 | Cc1nc(C(C)(O)c2cccs2)sc1C (stereo unspecified) | 129 to 130 °C
57 | CCCn1c(COCC)nc2c(N)nc3cc(OC4CCNCC4)ccc3c21 | 202 to 204 °C
58 | CC(CO)(CO)C(=O)N1CCOCC1 | 95 to 97 °C
59 | O=S(=O)(CC(F)(F)F)Nc1ccc(Oc2ccc(F)cc2F)cc1 | 105 to 108 °C

Row | Structure (SMILES) | melting point
60 | Nc1n[nH]c(-c2cc(Cl)nc(Cl)c2)n1 | 240 to 250 °C
61 | CCOC(=O)C(Cc1ccc(-c2cccc(N(C)C(=O)Nc3ccc(N(C)C)cc3)c2)cc1)Nc1ccccc1C(=O)c1ccccc1 (stereo unspecified) | 75 °C
62 | CCCC1(Br)Cc2c(c(C)c(C)c3oc(C(=O)O)cc23)C1=O (stereo unspecified) | 233 °C
63 | COc1ccc(-c2cc(=Nc3c(C)cc(C)cc3C)n(C)c(=O)n2C)cc1OC | 68 to 70 °C
64 | COCc1c(C(=O)OC(C)C)ncc2[nH]c3cccc(Oc4ccc([N+](=O)[O-])cc4)c3c12 | 217 to 219 °C
65 | COc1ccc(NC(=O)c2csc(Br)c2OC)cc1N1CCN(C)CC1 | 120 to 122 °C
66 | CS(=O)(=O)c1ccc(-c2cnn(-c3ccc(F)c(Cl)c3)c(=O)c2-c2ccc(Cl)cc2)cc1 | 205 °C
67 | Cc1oc(CCOc2ccc(CC3SC(=O)NC3=O)cn2)nc1Cc1ccccc1 (stereo unspecified) | 110 to 111 °C
68 | Cn1c(=O)c(-c2c(Cl)cccc2Cl)cc2cnc(NCc3ccccc3)nc21 | 217 to 219 °C
69 | CN1CCN(c2cc(Cl)cc3c2c(=O)n(Cc2cccc(F)c2)c(=O)n3Cc2ccccc2)CC1 | 148 to 150 °C
70 | CN(O)CCCc1ccc2c(c1)C(=O)c1ccccc1CO2 | 113 to 114 °C
71 | CCc1ccc(C2CCCCC2)nc1 | 79 to 81 °C
72 | Cc1cccc(Cl)c1N1CCCN(C)C1=S | 164 to 165 °C
73 | Cn1cc(C2=C(c3c4n(c5ccccc35)CCCC4)C(=O)OC2=O)c2ccccc21 | 276 to 278 °C
74 | CCCC1COc2c(Cc3ccc(C(C)C)cc3)c(C)c(NC(=O)CC(C)(C)C)c(C)c21 (stereo unspecified) | 144 to 145 °C
75 | CC(=O)OC1CSC(Oc2cccc(-c3ccsc3)c2)C(OC(C)=O)C1OC(C)=O (stereo unspecified) | 111 °C
76 | CC(=O)NC(C)Cc1ccccc1 (stereo unspecified) | 91 to 93 °C
77 | C#Cc1ccc2c(c1)C(c1ccccn1)=NCc1c(C(=O)NC)ncn1-2 | 215 to 216 °C
78 | O=c1nc(-c2ccccc2C(F)(F)F)sc2ccccc12 | 140 °C
79 | CCCCc1ccc(-c2ccc(CCC3OCC(CCC)CO3)cc2)c(F)c1 (stereo unspecified) | 36 °C
80 | CCN1C(=O)C(C)(C)C(=O)N(C)c2cc(CN(C)Cc3ccccc3CN3C(=O)CCc4ccccc43)ccc21 | 125 to 127 °C
81 | N#CSCCNc1ccc([N+](=O)[O-])cc1Cl | 148 to 150 °C

Row | Structure (SMILES) | melting point
82 | CCOC(=O)CCCCCNc1ccccc1 | 34 to 37 °C
83 | COc1ccc2c(c1)CCNC2=O | 128 to 130 °C
84 | O=S(=O)(c1ccc(/C=C/c2nc(COc3ccc(CCCCn4ccnn4)cc3)co2)cc1)C(F)(F)F | 133 to 135 °C
85 | CNC(=O)Nc1ccc(F)cc1F | 182 to 183 °C
86 | O=C(NCCC12CC3CC(CC(C3)C1)C2)c1ccccc1Cl | 125 to 127 °C
87 | CCOC(=O)c1[nH]c(C)c(C)c1OCCCl | 81 to 83 °C
88 | CC(C)CCCCNC(=O)n1sc2ccccc2c1=O | 49 to 51 °C
89 | CSc1cc2c(cc1SC)C(=O)c1cc3ccccc3cc1C2=O | > 260 °C
90 | CC(=O)N(CC(=O)N1CC1C#N)c1ccccc1 (stereo unspecified) | 69 to 75 °C
91 | NC(=O)C1C(=O)NC(=O)C(C(N)=O)C12CCCCC2 (stereo unspecified) | > 300 °C
92 | COCCOc1ccc(CCCNS(=O)(=O)c2ccccc2)c(Oc2ncc(C(F)(F)F)cc2Cl)c1 | 94 to 95 °C
93 | COc1ccccc1S(=O)(=O)N(C)c1cccc2cc(C3=NCC(CC(=O)Nc4nnc[nH]4)S3)[nH]c12 (stereo unspecified) | 208 to 209 °C
94 | Brc1ccc(SCc2noc(CSc3ccc(Br)cc3)n2)cc1 | 80 °C
95 | CC(CCCN(C)c1ccccc1)NCC(O)c1ccc(O)c(C(N)=O)c1 (stereo unspecified) | 155 to 157 °C
96 | CC(C)(C)c1onc(NS(=O)(=O)c2ccccc2)c1Br | 139 to 141 °C
97 | CSc1ncccc1NC(=O)CCCCCSc1nc2ccccc2o1 | 127 to 128 °C
98 | CCOC(=O)Cc1ccc(S(=O)(=O)C2CC2)cc1 | 102 to 104 °C
99 | NCCCNC(=O)c1ccc(-c2ccc3nnn(Cc4ccc5ncccc5c4)c3n2)cc1F | 292 to 294 °C
100 | CCCN(CCC)[C@@H]1CCc2ccc(C(N)=O)cc2C1 | 132 °C
101 | CCOC(=O)c1c[nH]nc1OC(C)C | 55 to 56 °C
